Laboratory results published in PMC7714489 (Journal of medicinal chemistry, 2015).

Assays:
Assay type in all cases: cell-based
[1] = tested on: subgenomic HCV replicon in Huh-7 cells; assay: HCV subgenomic replicon assay in Huh-7 cells; conditions: Huh-7 replicon
[2] = tested on: thymidine uptake; assay: Effect on thymidine uptake; conditions: 100 μM; data not shown
[3] = tested on: cellular GAPDH levels; assay: Effect on cellular GAPDH levels; conditions: 100 μM; data not shown
[4] = tested on: PC3 cells (a human prostate cancer cell line); assay: Toxicity in PC3 cells; conditions: 100 μM; data not shown
[5] = tested on: HepG2 cells; assay: Lactate production assay; conditions: 10 μM, HepG2, 14 days

`CCOC(=O)CCc1ccccc1OP(=O)(OC[C@H]1O[C@@H](n2cnc3c(N)nc(N)nc32)[C@](C)(O)[C@@H]1O)Oc1ccccc1CCC(=O)OCC` [compound 18] was tested, and the “inhibition of HCV RNA replication (in words)” value [1] was “inactive”.
With `CCOC(=O)CCc1ccccc1O[P@@](=O)(N[C@@H](C)C(=O)OCC)OC[C@H]1O[C@@H](n2cnc3c(N)nc(N)nc32)[C@](C)(O)C1O` (stereo in doubt) [15b(Rp), Ethyl 3-(2-(((R)-(((2R,3R,4R,5R)-5-(2,6-Diamino-9H-purin-9-yl)-3,4-dihydroxy-4-methyltetrahydrofuran-2-yl)methoxy)(((S)-1-ethoxy-1-oxopropan-2-yl)amino)phosphoryl)oxy)phenyl)-propanoate] the “effect on thymidine uptake” value [2] was “did not observe”, the “effect on cellular GAPDH levels” value [3] was “did not observe” and the “toxicity in PC3 cells” value [4] was “did not observe any toxicity”.
For `COc1nc(N)nc2c1ncn2[C@@H]1O[C@H](COP(=O)(N[C@@H](C)C(=O)OCC(C)(C)C)Oc2cccc3ccccc23)[C@@H](O)[C@@]1(C)O` (stereo partly drawn) [compound 1, reference compound], the “inhibition of HCV RNA replication (in words)” value [1] was “nanomolar potency” and the “cell death in lactic acid experiment” value [5] was “excessive cell death”.
